Data published in patent US12053777B2, “Devices and methods for detecting cancerous cells” (Academia Sinica, priority 2019, dated 2024).

Columns and labels:
Experiment in all cases: Capture of cells by sulfated octasaccharide-coated magnetic beads on microfluidic chip
Assay type in all cases: cell-based
Huh-28 [1] = conditions: for specificity of capture among the eight cell lines: Huh28, a cholangiocarcinoma (CCA) cell line, versus the other cell lines; for capture rate: Huh-28 cells
Procedure: (§1) Preparation of magnetic beads pre-coated with a sulfated octasaccharide. The surface of magnetic beads was respectively coated with the sulfated octasaccharides of the present invention (e.g., HS1, HS12 and etc) with three different concentrations (1 μM, 10 μM and 100 μM). Briefly, sulfated octasaccharides were first incubated with Dynabeads® MyOne™ Streptavidin T1 (˜7-10×10^9 beads/mL, Ø=1 μm, Invitrogen Co., USA) in a volume ratio of 1:10 for 30 min. Then beads were collected by using a magnet for 5 min, followed by discarding the supernatant and washing thrice by using 1-mL deionized (DI) water. Finally, the coated beads were suspended in the equal volume of DI water as the initial volume of Dynabeads® taken from the vial.
(§2) The microfluidic chip constructed above was employed to capture cancerous cells. Briefly, 2×10^5 cells from various types of cancerous cell lines were suspended in 100 μL×phosphate buffered saline (PBS) buffer and loaded into six capture chambers, respectively. 10 μL of different concentrations of sulfated octasaccharides coated beads were manually pipetted in the capture chambers, and gently mixed with cells by the micropumps for 15 min. After incubation, the cells were identified and bound by the magnetic beads pre-coated with the sulfated octasaccharides of formula (I) of the present invention. Then, these captured cells were collected with a magnetic force and washed by 1×PBS buffer. After isolating, the beads and captured cells were suspended in 100 μL 1×PBS buffer, and finally loaded into a hemocytometer to calculate the capture rates.
(§3) In a pre-test, total of 8 cancer cell lines (i.e., MMNK-1, SNU-478, HuCCT-1, Huh-28, KKU-100, HepG2, BxPC3, and HCT8) were respectively loaded into the microsystem and incubated with the magnetic beads, then the captured cells were collected with a magnetic force, and finally loaded into a hemocytometer to calculate the capture rates.
FIG. 2 illustrates that the cancer cells, Huh-28, could be successfully captured by magnetic beads pre-coated with HS 1 of 100 μM. Huh-28 cells before being captured by magnetic beads are depicted in FIG. 2, panel a. After well mixing Huh-28 cells and beads for 30 mins, cells were surrounded by beads (FIG. 2, panel b). The supernatant collection through an isolation process by magnetic force after 30-min incubation is depicted in FIG. 2, panel c.

KKU-100 = KKU-100 cells
Procedure: as §1, §2, §3

HCT8 = test system: HCT8
Procedure: as §1, §2, §3

MMNK-1 = conditions: for capture rate: MMNK-1 cells; for capture rate, in words: normal cells (MINK-1)
Procedure: as §1, §2, §3

HuCCT-1 = conditions: for capture rate: HuCCT-1 cells; for capture rate, in words: metastasized CCA cells (HuCCT-1)
Procedure: as §1, §2, §3

SNU-478 = SNU-478 cells
Procedure: as §1, §2, §3

BxPC3 = test system: BxPC3
Procedure: as §1, §2, §3

HepG2 = test system: HepG2
Procedure: as §1, §2, §3

Huh-28 [2] = conditions: Huh-28 cells; EpCAM-coated beads

For NCCCCCO[C@@H]1O[C@H](C(=O)O)[C@@H](O[C@H]2O[C@H](COS(=O)(=O)O)[C@@H](O[C@@H]3O[C@@H](C(=O)O)[C@@H](O[C@H]4O[C@H](COS(=O)(=O)O)[C@@H](O[C@@H]5O[C@H](C(=O)O)[C@@H](O[C@H]6O[C@H](COS(=O)(=O)O)[C@@H](O[C@@H]7O[C@@H](C(=O)O)[C@@H](O[C@H]8O[C@H](COS(=O)(=O)O)[C@@H](O)[C@H](O)[C@H]8NS(=O)(=O)O)[C@H](O)[C@H]7OS(=O)(=O)O)[C@H](O)[C@H]6NS(=O)(=O)O)[C@H](O)[C@H]5OS(=O)(=O)O)[C@H](O)[C@H]4NS(=O)(=O)O)[C@H](O)[C@H]3OS(=O)(=O)O)[C@H](O)[C@H]2NS(=O)(=O)O)[C@H](O)[C@H]1OS(=O)(=O)O [HS 12], the “specificity of capture among the eight cell lines” value (Huh-28 [1]) was “highly specific to Huh28”, the capture rate (Huh-28 [1]; beads coated with HS at 1 μM) was 66 ± 6% and the capture rate (Huh-28 [1]; beads coated with HS at 10 μM) was 67 ± 3%. For the same molecule, the capture rate (Huh-28 [1]; beads coated with HS at 100 μM) was 73±4%, the capture rate (KKU-100; beads coated with HS at 1 μM) was 42 ± 3% and the capture rate (KKU-100; beads coated with HS at 10 μM) was 44 ± 2%. It also gave a capture rate (KKU-100; beads coated with HS at 100 μM) of 41 ± 11%, a capture rate (HCT8; beads coated with HS at 1 μM) of 16 ± 3% and a capture rate (HCT8; beads coated with HS at 10 μM) of 13 ± 0%. The capture rate (HCT8; beads coated with HS at 100 μM) was 9 ± 2%, the capture rate (MMNK-1; beads coated with HS at 1 μM) was 55 ± 7% and the capture rate (MMNK-1; beads coated with HS at 10 μM) was 47 ± 20%. For the same molecule, the capture rate (MMNK-1; beads coated with HS at 100 μM) was 16 ± 8%, the “capture rate, in words” value (MMNK-1) was “relatively low” and the capture rate (HuCCT-1; beads coated with HS at 1 μM) was 5 ± 1%. The capture rate (HuCCT-1; beads coated with HS at 10 μM) was 5 ± 2%, the capture rate (HuCCT-1; beads coated with HS at 100 μM) was 4 ± 2% and the “capture rate, in words” value (HuCCT-1) was “relatively low”. For the same molecule, the capture rate (SNU-478; beads coated with HS at 1 μM) was 20 ± 5%, the capture rate (SNU-478; beads coated with HS at 10 μM) was 17 ± 7% and the capture rate (SNU-478; beads coated with HS at 100 μM) was 16 ± 8%. It also gave a capture rate (BxPC3; beads coated with HS at 1 μM) of 16 ± 6%, a capture rate (BxPC3; beads coated with HS at 10 μM) of 11 ± 3% and a capture rate (BxPC3; beads coated with HS at 100 μM) of 7 ± 3%. The capture rate (HepG2; beads coated with HS at 1 μM) was 14 ± 1%, the capture rate (HepG2; beads coated with HS at 10 μM) was 11 ± 4% and the capture rate (HepG2; beads coated with HS at 100 μM) was 9 ± 6%.

For CC(=O)NC1C(O)[C@H](O)C(CO)O[C@@H]1O[C@@H]1C(C(=O)[O-])O[C@@H](O[C@@H]2C(CO)O[C@H](O[C@@H]3C(C(=O)[O-])O[C@@H](O[C@@H]4C(CO)O[C@H](O[C@@H]5C(C(=O)[O-])O[C@@H](O[C@@H]6C(CO)O[C@H](O[C@@H]7C(C(=O)[O-])O[C@@H](OCCCCCN)C(O)C7O)C(NC(C)=O)C6O)C(O)C5O)C(NC(C)=O)C4O)C(O)C3O)C(NC(C)=O)C2O)C(O)C1O.[Na+].[Na+].[Na+].[Na+] (stereo partly drawn) [HS 1, 5-Aminopentyl (2-acetamido-2-deoxy-α-D-glucopyranosyl)-(1→4)-α-L-idopyranosiduronyl-(1→4)-(2-acetamido-2-deoxy-α-D-glucopyranosyl)-(1→4)-α-L-idopyranosiduronyl-(1→4)-(2-acetamido-2-deoxy-α-D-glucopyranosyl)-(1→4)-α-L-idopyranosiduronyl-(1→4)-(2-acetamido-2-deoxy-α-D-glucopyranosyl)-(1→4)-α-L-idopyranosiduronate], the “specificity of capture among the eight cell lines” value (Huh-28 [1]) was “highly specific to Huh28”, the capture rate (Huh-28 [1]; beads coated with HS at 1 μM) was 65 ± 20% and the capture rate (Huh-28 [1]; beads coated with HS at 10 μM) was 70 ± 10%. The capture rate (Huh-28 [1]; beads coated with HS at 100 μM) was 78 ± 14%, the capture rate (Huh-28 [1]; beads coated with HS at 100 μM, listed as HS1) was 78±14% and the “capture of Huh-28 cells seen in photographs (FIG. 2)” value (Huh-28 [1]; beads coated at 100 μM, 30-min incubation, few cells left in supernatant) was “Almost all of the Huh-28 cells were captured and isolated”. For the same molecule, the capture rate (KKU-100; beads coated with HS at 1 μM) was 40 ± 10%, the capture rate (KKU-100; beads coated with HS at 10 μM) was 46 ± 1% and the capture rate (KKU-100; beads coated with HS at 100 μM) was 51 ± 2%. For the same molecule, the capture rate (HCT8; beads coated with HS at 1 μM) was 18 ± 5%, the capture rate (HCT8; beads coated with HS at 10 μM) was 14 ± 4% and the capture rate (HCT8; beads coated with HS at 100 μM) was 13 ± 3%. For the same molecule, the capture rate (MMNK-1; beads coated with HS at 1 μM) was 58 ± 11%, the capture rate (MMNK-1; beads coated with HS at 10 μM) was 52 ± 6% and the capture rate (MMNK-1; beads coated with HS at 100 μM) was 34 ± 5%. The “capture rate, in words” value (MMNK-1) was “relatively low”, the capture rate (HuCCT-1; beads coated with HS at 1 μM) was 4 ± 1% and the capture rate (HuCCT-1; beads coated with HS at 10 μM) was 6 ± 2%. For the same molecule, the capture rate (HuCCT-1; beads coated with HS at 100 μM) was 4 ± 1%, the “capture rate, in words” value (HuCCT-1) was “relatively low” and the capture rate (SNU-478; beads coated with HS at 1 μM) was 23 ± 13%. It also gave a capture rate (SNU-478; beads coated with HS at 10 μM) of 20 ± 8%, a capture rate (SNU-478; beads coated with HS at 100 μM) of 22 ± 7% and a capture rate (BxPC3; beads coated with HS at 1 μM) of 15 ± 5%. For the same molecule, the capture rate (BxPC3; beads coated with HS at 10 μM) was 18 ± 4%, the capture rate (BxPC3; beads coated with HS at 100 μM) was 13 ± 7% and the capture rate (HepG2; beads coated with HS at 1 μM) was 12 ± 0%. The capture rate (HepG2; beads coated with HS at 10 μM) was 16 ± 6% and the capture rate (HepG2; beads coated with HS at 100 μM) was 10 ± 4%.

B1: EpCAM: epithelial cell adhesion molecule (EpCAM)-coated beads, comparison capture reagent (protein, UniProt P16422 24-314, looked up)
Epithelial cell adhesion …: QEECVCENYKLAVNCFVNNNRQCQCTSVGAQNTVICSKLAAKCLVMKAEMNGSKLGRRAKPEGALQNNDGLYDPDCDESGLFKAKQCNGTSMCWCVNTAGVRRTDKDTEITCSERVRTYWIIIELKHKAREKPYDSKSLRTALQKEITTRYQLDPKFITSILYENNVITIDLVQNSSQKTQNDVDIADVAYYFEKDVKGESLFHSKKMDLTVNGEQLDLDPGQTLIYYVDEKAPEFSMQGLKAGVIAVIVVVVIAVVAGIVVLVISRKKRMAKYEKAEIKEMGEMHRELNA
modifications: coated on beads
notes: epithelial cell adhesion molecule (EpCAM)-coated beads, comparison capture reagent
B1 gave a capture rate (Huh-28 [2]) of 58±19%, a capture rate (KKU-100; EpCAM-coated beads) of 51 ± 5% and a capture rate (HCT8; EpCAM-coated beads) of 22 ± 3%. It also gave a capture rate (MMNK-1; EpCAM-coated beads) of 58 ± 8%, a capture rate (HuCCT-1; EpCAM-coated beads) of 67 ± 11% and a capture rate (SNU-478; EpCAM-coated beads) of 74 ± 6%. It also gave a capture rate (BxPC3; EpCAM-coated beads) of 45 ± 6% and a capture rate (HepG2; EpCAM-coated beads) of 44 ± 7%.
